{"source": "paper PMC6628362", "about": "“A New Strategy for Glioblastoma Treatment: In Vitro and In Vivo Preclinical Characterization of Si306, a Pyrazolo[3,4-d]Pyrimidine Dual Src/P-Glycoprotein Inhibitor” (Cancers, 2019)", "key": {"[1]": {"experiment": "Brain and tissue distribution of Si306 in mice", "format": "in vivo, BALB/C mice", "conditions": "for Tmax / Kp / AUC(0-inf) / Cmax / half-life / AUC(0-t) / MRT inf: male, BALB/C, mouse; for Tmax / AUC(0-inf) / Cmax / half-life / AUC(0-t) / MRT inf: brain; for Kp: brain/plasma, read-out: AUC brain to plasma ratio; for AUC(0-t): read-out: AUC 0→24 h; for MRT inf: read-out: MRT 0→∞", "excerpt": "Naive male BALB/C mice (weight 20 ± 2 g) were ordered from Charles River (Milan, Italy). All animals were pathogen free and approximately 4–6 weeks old when they arrived. The adaption period to the environment was not less than seven days. All the procedures used on animals in this study were approved by Institutional Animal Use and Care Committee at Università Cattolica del S. Cuore, Rome and Università degli Studi di Siena and authorized by the Italian Ministry of Health, according to Legislative Decree 116/92, which implemented the European Directive 86/609/EEC on laboratory animal protection in Italy. Methods for all the conducted experiments were performed in accordance with regulations, standards and guidelines of the Animal Use and Care Committee of Università Cattolica del S. Cuore, Rome and Università degli Studi di Siena.\nSi306 was dissolved in a mixture of Tween80 (10% v/v), benzyl alcohol (1% v/v) and a 10 mM solution of citric acid. The compound was administered intravenously as a single dose of 25 mg/kg in 200 μL of volume. At several time points (0.08, 0.25, 0.5, 1, 2, 4, 8, 24 h), after drug administration, mice were treated i.p. with heparin (5000 U/kg) and sacrificed under CO2. Five animals were used for each time point. Blood, brain, liver and kidneys were collected for the following quantitative analysis. Approximately 500–600 μL of blood was collected from each animal and transferred to a tube containing 10 μL of heparin and mixed briefly.\nFor the oral PK studies, mice received a single dose of 50 mg/kg of Si306 (dissolved in the same vehicle used for i.v. studies) in 400 μL of final volume by gavage. At nine time-points (0.25, 0.5, 1, 1.5, 2, 3, 4, 8, 24 h) after administration, mice were sacrificed under CO2. Blood and organs were collected and analyzed by LC-MS. The pharmacokinetic parameters, including area under concentration-time curve (AUC), maximum plasma concentration (Cmax), half-time (t1/2), apparent volume of distribution (V), plasma clearance (CL) and mean residence time (MRT), were calculated by non-compartmental analysis using PKSolver software (ver. 1.0, Nanjing, China).\nBlood samples were centrifuged at 5000 rpm for 20 min to separate the plasma fraction, which was subsequently collected in a test tube. Acetonitrile (1 mL, with Si34 as internal standard at the concentration of 5 μg/mL) was added to each sample to denature proteins. Samples were centrifuged at 5000 rpm for 20 min, and the supernatant was recovered, dried under vacuum, solubilized again in methanol (100 μL), and analyzed. Brain and the other organs were homogenized using a T10 basic ULTRA-TURRAX® homogenizer (Bioclass, Pistoia, Italy); in order to extract the compound from the tissue, acetonitrile internal standard solution was added, and the homogenate was centrifuged at 5000 rpm for 20 min. The supernatant was recovered, filtered and analyzed by LC-MS. The quantification of each compound was performed by reference to the appropriate calibration curve. Representative LC-MS chromatograms for Si306 and for Si34 are reported in Figure S2 and Figure S3 respectively."}, "CYP3A4": {"biological_target": "T1, CYP3A4 (Homo sapiens, UniProt P08684)", "T1 construct": "Incubations were carried out in a mix containing human liver microsomes (1 mg/mL of protein); from tissue; host or cells: human liver microsomes", "T1 sequence (P08684 whole entry, canonical isoform)": "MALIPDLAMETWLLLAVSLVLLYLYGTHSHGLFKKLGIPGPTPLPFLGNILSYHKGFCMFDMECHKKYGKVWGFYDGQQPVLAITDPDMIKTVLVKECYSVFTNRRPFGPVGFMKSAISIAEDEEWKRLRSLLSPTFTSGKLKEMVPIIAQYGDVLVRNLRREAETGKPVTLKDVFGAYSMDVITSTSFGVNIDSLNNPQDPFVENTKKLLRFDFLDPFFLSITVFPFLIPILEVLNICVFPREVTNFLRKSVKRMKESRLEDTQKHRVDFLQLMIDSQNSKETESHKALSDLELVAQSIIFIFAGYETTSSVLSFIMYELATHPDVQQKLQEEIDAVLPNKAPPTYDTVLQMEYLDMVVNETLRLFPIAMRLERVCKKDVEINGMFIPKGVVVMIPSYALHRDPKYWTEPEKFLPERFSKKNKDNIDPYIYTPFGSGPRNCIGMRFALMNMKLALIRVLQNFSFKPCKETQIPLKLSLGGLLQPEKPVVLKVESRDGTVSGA", "experiment": "CYP3A4 inhibition in human liver microsomes (testosterone 6β-hydroxylation)", "format": "in vitro ADME", "procedure": "The inhibition of cytochrome P450 3A4 isoform by Si306 and pro-Si306 was measured by determining its activity on the substrate testosterone.\nThe activity of CYP3A4 was evaluated by measuring the 6β-hydroxylated testosterone formation (CYP3A4-specific reaction). The amount of 6β-hydroxylated metabolite was assessed in the absence and presence of Si306, pro-Si306 and ketoconazole (testosterone concentration of 100 μM in phosphate buffer 0.025 M, pH 7.4). […] Ketoconazole was used as standard selective inhibitor of CYP3A4 isoenzyme. Incubations were carried out in a mix containing human liver microsomes (1 mg/mL of protein) in phosphate buffer 0.025 M, pH 7.4, NADPH (200 μM) previously solubilized in a MgCl2 48 mM solution. The final incubation volume was 0.25 mL. After a 40 min-incubation period at 37 °C, the reaction was stopped by adding 1 mL of acetonitrile in the presence of corticosterone 2 μM as internal standard. The samples were centrifuged for 20 min at 5000 rpm. Concentrations of testosterone and its metabolite 6β-hydroxytestosterone were assessed by the HPLC method with UV detection. Calibration curve for quantitative analysis of 6β-hydroxytestosterone in the samples was obtained using commercial 6β-hydroxytestosterone purchased from Sigma Aldrich. For the statistical analysis, GraphPad InStat 3.0 (GraphPad Software, San Diego, CA, USA) was used."}}, "note": "Like-named read-outs stand apart in the source and are kept apart here.", "data": [{"molecule": "ClC(Cn1ncc2c(Nc3cccc(Br)c3)nc(SCCN3CCOCC3)nc21)c1ccccc1", "note": "(stereo not drawn) [Si306]", "values": [{"measurement": "maximum concentration into the brain", "setting": "[1]; i.v., 25 mg/kg", "value": 2.94, "unit": "µg/g"}, {"measurement": "Tmax", "setting": "[1]; iv, 25 mg/kg, i.v., 25 mg/kg, read-out: Tmax", "value": 4.8, "unit": "min"}, {"measurement": "Tmax", "setting": "[1]; iv, 25 mg/kg, i.v., 25 mg/kg, read-out: time of maximum concentration into the brain (converted)", "value": 5, "unit": "min"}, {"measurement": "Tmax", "setting": "[1]; po, 50 mg/kg, p.o., 50 mg/kg, read-out: Tmax", "value": 30, "unit": "min"}, {"measurement": "Tmax", "setting": "[1]; po, 50 mg/kg, p.o., 50 mg/kg, read-out: time of maximum concentration into the brain (converted)", "value": 30, "unit": "min"}, {"measurement": "Kp", "setting": "[1]; iv, 25 mg/kg", "value": 0.095}, {"measurement": "Kp", "setting": "[1]; oral route, 50 mg/kg", "value": 1.19}, {"measurement": "AUC(0-inf)", "setting": "[1]; iv, 25 mg/kg", "value": 2150, "unit": "ng·h/mL"}, {"measurement": "Cmax", "setting": "[1]; iv, 25 mg/kg", "value": 2940, "unit": "ng/g"}, {"measurement": "half-life", "setting": "[1]; iv, 25 mg/kg", "value": 158, "unit": "min"}, {"measurement": "AUC(0-t)", "setting": "[1]; iv, i.v., 25 mg/kg", "value": 2140, "unit": "ng·h/mL"}, {"measurement": "MRT inf", "setting": "[1]; iv, i.v., 25 mg/kg", "value": 1.48, "unit": "h"}, {"measurement": "AUC(0-inf)", "setting": "[1]; po, 50 mg/kg", "value": 18000, "unit": "ng·h/mL"}, {"measurement": "Cmax", "setting": "[1]; po, 50 mg/kg", "value": 10600, "unit": "ng/g"}, {"measurement": "half-life", "setting": "[1]; po, 50 mg/kg", "value": 126, "unit": "min"}, {"measurement": "AUC(0-t)", "setting": "[1]; po, p.o., 50 mg/kg", "value": 18000, "unit": "ng·h/mL"}, {"measurement": "MRT inf", "setting": "[1]; po, p.o., 50 mg/kg", "value": 1.2, "unit": "h"}, {"measurement": "AUC brain/plasma, fold higher p.o. with respect to i.v.", "setting": "[1]; p.o. 50 mg/kg vs i.v. 25 mg/kg", "value": 12, "unit": "fold"}, {"measurement": "maximum concentration into the brain", "setting": "[1]; p.o., 50 mg/kg", "value": 10.65, "unit": "µg/g"}, {"measurement": "inhibition at 40 min, 50 μM", "setting": "CYP3A4; pH 7.4, probe testosterone 100 μM (6β-hydroxylation), highest concentration used (1–50 μM range), not significative, read-out: maximum inhibition of CYP3A4 (testosterone 6β-hydroxylation)", "value": 20, "unit": "%"}, {"measurement": "interaction with CYP3A4", "setting": "CYP3A4; up to 50 μM", "value": "do not interact with CYP3A4"}]}]}
